This experiment relates to murine fibroblasts BALB3T3. As to the kind of experiment: MTT with induced oxidative stress-BALB3T3. Type of experiment: cell-based. To be noted: 25 μM; oxidative stress induced with H2O2. On the procedure: Non-treated cells in DMEM medium (Dulbecco's Modified Eagle's Medium, ATCC, Manassas, Va., USA) added to 2.5% fetal bovine serum (FCS), 1% non-essential amino acids (NEAA), a 1% penicillin and streptomycin mixture (Pen-Strep Mix), and maintained in 25 cm^2 (96 well) culture plates at 37° C. and under 5% CO2.
Cells treated for 2 hrs with 1 mM hydrogen peroxide in DMEM medium (Dulbecco's Modified Eagle's Medium, ATCC, Manassas, Va., USA) added to 2.5% fetal bovine serum (FCS), 1% non-essential amino acids (NEAA), a 1% penicillin and streptomycin mixture (Pen-Strep Mix), and maintained in 25 cm^2 (96 well) culture plates at 37° C. and under 5% CO2 (in the dark). […]
Studies conducted in 2005 by Rajapakse and colleagues (2005) have highlighted the possibility of employing a widely used and versatile method such that of the MTT essay for studying the in vitro anti-oxidant activity of active compounds. […] The possible protecting effects may be determined by the assessment of the post-oxidative stress cell viability of cells pre-treated/pre-exposed to the active compounds to be tested, in comparison to cells subjected to the same oxidative stress. […]
The data were expressed as the percentage of cell viability as compared to the non-stressed control cells (ctr), according to the following formula: cell viability/ctr=(Abs sample/Abs ctr)*100 […]

Experimental findings from patent US9498429B2, “Use of a vegetal extract for the prevention and treatment of hair loss” (GIULIANI S.P.A., priority 2013, dated 2016) are described below.

As for `Cc1c(C)c2c(c(C)c1O)CC[C@@](C)(CCC[C@H](C)CCC[C@H](C)CCCC(C)C)O2` [α-tocopherol], the Scavenger activity is 43.10.
